In patent US9597271B2, “Cosmetic compositions and methods” (The Procter & Gamble Company, priority 2013, dated 2017):
“And” between values parts separate entries of the source, which are not always exact repeats. Identical values can stand only once.

Assays:
20S proteasome [1] = molecular target: T1, 20S proteasome (Mus musculus, UniProt O55234); assay: Proteasomal protease in vitro assay (ProteasomeGlo, Suc-LLVY luminogenic substrate) in B16 melanoma cells; type: cell-based; conditions: for Fold Change Over Control (luminescence): B16 melanoma cells; for Ricinoleate concentration at which synergy with niacinamide is statistically significant: combined with 250 μM niacinamide
T1 construct: endogenous in cells; host or cells: B16 melanoma cells (lysate after 20-24 h treatment)
T1 sequence (O55234 60-264): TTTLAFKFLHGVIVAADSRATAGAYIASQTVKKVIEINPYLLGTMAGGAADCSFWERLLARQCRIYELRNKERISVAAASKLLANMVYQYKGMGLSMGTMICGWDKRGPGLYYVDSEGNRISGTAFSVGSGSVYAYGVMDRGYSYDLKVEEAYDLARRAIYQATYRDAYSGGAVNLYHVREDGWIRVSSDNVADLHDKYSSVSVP
Method: The following proteasomal protease in vitro assay was employed for evaluating activity associated with this pathway. Cultures of B16 melanoma cells (about 25% confluence) were treated with a culture media (Dulbecco's Modified Eagle Medium, 11995-065 Life technologies supplemented with 5% Fetal Bovine Serum, 30-2020, American Tissue Culture Collection and 1% Penicillin/streptomycin, 15140, Life Technologies) and one of 1) a vehicle (DMSO) containing niacinamide, 2) a vehicle (DMSO) containing one of glycerol ricinoleate, sodium ricinoleate and butyl acetyl ricinoleate at varying dilutions, 3) a vehicle (DMSO) containing a combination of niacinamide and one of the ricinoleate compounds listed above, and 4) a vehicle (DMSO) containing 2-hexyl-decanol as a positive control. The final dilution of DMSO in the culture medium was 1% in all instances. The treated melanoma cells were incubated in multi-well plates at 37° C. in a CO2 incubator for a period of 20 to 24 hours. The treated cells were thereafter lyzed by removing the culture medium and replacing it with 100 uL/well of CellGlo lysis reagent (available from Promega, Wis., USA) followed by incubation at room temperature for about 10 minutes. A luminogenic substrate containing a Suc-LLVY peptide sequence recognized by the 20S proteasome was added to the B16 cultures, and the mixtures were incubated in multi-well plates at a temperature of 25° C. for approximately 10 minutes. Luminescence counts (a unit less measurement from the plate reader) from developing the cleaved substrate with luciferase detection system (ProteasomeGlo® from Promega, Madison, Wis.) was measured in an Envision Plate Reader (Perkin Elmer, Waltham, Mass.). Other plate luminometer/luminescence readers may also be used as known in the art.
Luminescence counts for treatment groups were divided by the luminescence counts from the vehicle control (1% DMSO, as diluted in the culture medium). […] 2-hexyldecanol, a known skin tone agent, was also previously found to activate this proteasomal chymotryptic protease activity. See, e.g., Hakozaki et al., A regulator of ubiquitin-proteasome activity, 2-hexyldecanol, suppresses melanin synthesis and the appearance of facial hyperpigmented spots, British Journal of Dermatology 2013, 169 (Supp 2), pp 39-44.

20S proteasome [2] = molecular target: T1, 20S proteasome; conditions: previously found, Hakozaki et al. 2013; cited from earlier work
[3] = experiment #1, N=3, 20 to 24 hours, DMSO vehicle
[4] = experiment #2, N=3, 20 to 24 hours, DMSO vehicle
[5] = vitamin B3 compound alone, 250 uM, B16 cells, average of 3 replicates
[6] = ricinoleate compound alone, 0.000064 w/v %, B16 cells
[7] = ricinoleate compound alone, 0.00032 w/v %, B16 cells
[8] = ricinoleate compound alone, 0.0016 w/v %, B16 cells
[9] = ricinoleate compound alone, 0.008 w/v %, B16 cells

Row | Compound | Fold Change Over Control (luminescence) (20S proteasome [1]; Avg. of experiments #1 and #2) | Fold Change Over Control (luminescence) (20S proteasome [1]; [3]) | Fold Change Over Control (luminescence) (20S proteasome [1]; [4]) | Net Luminescence (treatment luminescence counts − vehicle control luminescence counts) (20S proteasome [1]; [5]) | Net Luminescence (treatment luminescence counts − vehicle control luminescence counts) (20S proteasome [1]; [6]) | Net Luminescence (treatment luminescence counts − vehicle control luminescence counts) (20S proteasome [1]; [7]) | Net Luminescence (treatment luminescence counts − vehicle control luminescence counts) (20S proteasome [1]; [8]) | Net Luminescence (treatment luminescence counts − vehicle control luminescence counts) (20S proteasome [1]; [9]) | other results
1 | CCCCCC[C@@H](O)C/C=C\CCCCCCCC(=O)OCC(O)CO (stereo partly shown) [Glyceryl ricinoleate, glyceryl ricinoleate] | 1.17 | 1.15 | 1.18 |  | 123 | 534 | 839 | 867 | Net Luminescence (treatment luminescence counts − vehicle control luminescence counts) (20S proteasome [1]; ricinoleate compound alone, 0.00032 w/v %, B16 cells, listed as GR): 287 and 518; Net Luminescence (treatment luminescence counts − vehicle control luminescence counts) (20S proteasome [1]; ricinoleate compound alone, 0.0016 w/v %, B16 cells, listed as GR): 745 and 1258; Net Luminescence (treatment luminescence counts − vehicle control luminescence counts) (20S proteasome [1]; ricinoleate compound alone, 0.008 w/v %, B16 cells, listed as GR): 789 and 1125
2 | COC(=O)c1cccnc1 [Methyl niconate, methyl niconate] |  |  |  | 162 |  |  |  |  | 
3 | NC(=O)c1cccnc1 [Niacinamide, niacinamide] |  |  |  | 158 (4×) and 257 (8×) and 1503 |  |  |  |  | Activation of proteasomal protease activity, single agent (in words) (20S proteasome [1]; B16 cells): lower level of activation
4 | O=C(O)c1cccnc1 [Nicotinic acid, nicotinic acid] |  |  |  | 303 |  |  |  |  | 
5 | nicotinamide ribose |  |  |  | 392 |  |  |  |  | 

Further lines, with some results ahead:

Row | Fold Change Over Control (luminescence) (20S proteasome [1]; Avg. of experiments #1 and #2) | Fold Change Over Control (luminescence) (20S proteasome [1]; [3]) | Fold Change Over Control (luminescence) (20S proteasome [1]; [4]) | Net Luminescence (treatment luminescence counts − vehicle control luminescence counts) (20S proteasome [1]; [5]) | Net Luminescence (treatment luminescence counts − vehicle control luminescence counts) (20S proteasome [1]; [6]) | Net Luminescence (treatment luminescence counts − vehicle control luminescence counts) (20S proteasome [1]; [7]) | Net Luminescence (treatment luminescence counts − vehicle control luminescence counts) (20S proteasome [1]; [8]) | Net Luminescence (treatment luminescence counts − vehicle control luminescence counts) (20S proteasome [1]; [9]) | Compound | other results
6 | 1.16 | 1.15 | 1.17 |  |  |  |  |  | CCCCCCCCC(CO)CCCCCC (stereo not shown) [2-hexyldecanol, reference compound] | Activation of proteasomal chymotryptic protease activity (in words) (20S proteasome [2]): activate
7 |  |  |  | 105 |  |  |  |  | OCc1cccnc1 [3-pyridinemethanol] | 
8 | 1.29 | 1.32 | 1.26 |  | 1224 | 2164 | 2357 | 2439 | CCCCCC[C@H](C/C=C\CCCCCCCC(=O)OCCCC)OC(C)=O [Butyl acetyl ricinoleate, butyl acetyl ricinoleate] | Ricinoleate concentration at which synergy with niacinamide is statistically significant (20S proteasome [1]; B16 cells): ≥ 0.00032%
9 |  |  |  |  |  |  |  | 4222 | CCCCCC[C@@H](O)C/C=C\CCCCCCCC(=O)OC [Methyl ricinoleate, methyl ricinoleate] | Ricinoleate concentration at which synergy with niacinamide is statistically significant (20S proteasome [1]; B16 cells): 0.008%
10 | 1.24 | 1.26 | 1.21 |  | 123 | 878 | 1805 | 2164 | CCCCCC[C@@H](O)C/C=C\CCCCCCCC(=O)[O-].[Na+] [Sodium ricinoleate, sodium ricinoleate] | 
